Source: patent US12590106B2, “Spiromacrocyclic orexin 2 receptor agonists” (H. Lundbeck A/S, priority 2023, dated 2026)

Biological target: T1, human Ox2R (Homo sapiens, UniProt O43614)
T1 construct: The gene encoding hOx2R was subcloned into the expression plasmid pcDNA5/FRT/TO; expressed in transfected cells; host or cells: CHO Flp-In cells (pcDNA5/FRT/TO with pOG44 Flp recombinase vector, hygromycin B selection)
T1 sequence (O43614 1-444): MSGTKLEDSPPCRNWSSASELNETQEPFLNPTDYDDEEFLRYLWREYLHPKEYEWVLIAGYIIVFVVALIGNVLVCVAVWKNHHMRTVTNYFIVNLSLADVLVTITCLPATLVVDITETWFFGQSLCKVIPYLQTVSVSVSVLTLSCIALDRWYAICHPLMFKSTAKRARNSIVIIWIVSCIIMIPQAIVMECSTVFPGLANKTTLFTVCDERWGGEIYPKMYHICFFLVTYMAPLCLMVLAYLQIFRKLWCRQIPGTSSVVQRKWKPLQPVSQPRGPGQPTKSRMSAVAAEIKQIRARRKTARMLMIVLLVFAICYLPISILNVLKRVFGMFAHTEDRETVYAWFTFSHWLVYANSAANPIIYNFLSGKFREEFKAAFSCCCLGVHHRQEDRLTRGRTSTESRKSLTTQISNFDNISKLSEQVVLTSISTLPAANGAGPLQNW
Test: Measurement of OX2R agonist activity (cell-based calcium release assay)
Details: hOx2R-CHO Flp-In cells, n≥2 tests; for EC50: intracellular calcium, read-out: EC50; for Emax: normalized to assay buffer (0%) and 10 μM Danavorexton (100%), read-out: Emax (%)
From the text: Measurement of OX2R Agonist Activity
The Ox2R has a broad signaling profile and couple to a range of different Gα-proteins. The cell-based calcium release assay is primarily assessing signaling through the Gαq signaling pathway, which promotes calcium mobilization via inositol triphosphate production upon activation of Ox2R.
A CHO Flp-In cell-line stably expressing the human Ox2R (hOx2R-CHO Flp-In) was established as follows: The gene encoding hOx2R was subcloned into the expression plasmid pcDNA5/FRT/TO and then transfected into CHO Flp-In cells together with the Flp recombinase vector, pOG44. Cells were cultured in growth medium: Ham's F12 (Gibco), 10% fetal bovine serum (Gibco) and 100 U/mL penicillin-streptomycin (Gibco) supplemented with hygromycin B (Thermo Fisher Scientific) as selection marker at 37° C. in the presence of 5% CO2.
To prepare the hOx2R-CHO FlpIn cells for calcium release assay, the cells were suspended in growth medium and seeded in black, clear-bottomed 384-well plates (Corning) at 10,000 cells/well. The plated cells were grown overnight at 37° C. and 5% CO2. The following day, the media was removed, and the cells were incubated with assay buffer (HBSS with 20 mM HEPES, pH 7.4) containing 2.5 mM probenecid (Thermo Fisher Scientific), 10 mM CaCl2, 0.1% pluronic F68 (Gibco) and 1× calcium-4 dye (Molecular Devices) for 1 h at 37° C. and 5% CO2. After incubation, cells were allowed to equilibrate at room temperature for 15 minutes and then loaded into FDSS7000Ex system (Hamamatsu Photonics) together with a plate containing test compounds serially diluted in assay buffer. Cells were stimulated with test compounds (online injection) and the agonist activity was determined as an increase in intracellular calcium concentration measured from the ratio of fluorescence emission at 542 nm by excitation at 480 nm. The agonist response for each applied concentration was assessed as the ratio: maximum fluorescence/average pre-stimulated fluorescence and was normalized to responses from assay buffer alone (0% response) and 10 μM Danavorexton (100% response). EC50 and Emax values were calculated from concentration-response curves by using Genedata Screener software.

Row | SMILES | EC50 [nM] | Emax [%]
1 | CS(=O)(=O)N[C@H]1CC[C@@]2(Cc3ccc(C(F)(F)F)c(c3)-c3ccccc3OCc3coc2n3)C1 [Example 24, N-[(1′S,14R)-19-(trifluoromethyl)spiro[8,12-dioxa-21-azatetracyclo[14.3.1.110,13.02,7]henicosa-1(19),2,4,6,10,13(21),16(20),17-octaene-14,3′-cyclopentane]-1′-yl]methanesulfonamide] | 5.2 | 98
2 | Cc1oc2nc1COc1ccccc1-c1cc(ccc1F)C[C@@]21CC[C@H](NS(C)(=O)=O)C1 [Example 26, N-[(1′S,14R)-19-fluoro-11-methyl-spiro[8,12-dioxa-21-azatetracyclo[14.3.1.110,13.02,7]henicosa-1(19),2,4,6,10,13(21),16(20),17-octaene-14,3′-cyclopentane]-1′-yl]methanesulfonamide] | 0.19 | 95
3 | CS(=O)(=O)N[C@H]1CC[C@@]2(Cc3cc(ccc3F)-c3c(F)ccc(F)c3OCc3coc2n3)C1 [Example 27, N-[(1′S,14R)-3,6,17-trifluorospiro[8,12-dioxa-21-azatetracyclo[14.3.1.110,13.02,7]henicosa-1(20),2,4,6,10,13(21),16,18-octaene-14,3′-cyclopentane]-1′-yl]methanesulfonamide] | 0.65 | 100
4 | CS(=O)(=O)N[C@H]1CC[C@@]2(Cc3cc(ccc3F)-c3ccc(F)c(F)c3OCc3coc2n3)C1 [Example 28, N-[(1′S,14R)-5,6,17-trifluorospiro[8,12-dioxa-21-azatetracyclo[14.3.1.110,13.02,7]henicosa-1(19),2,4,6,10,13(21),16(20),17-octaene-14,3′-cyclopentane]-1′-yl]methanesulfonamide] | 6 | 99
5 | CS(=O)(=O)N[C@H]1CC[C@@]2(Cc3cc(ccc3F)-c3cccc(Cl)c3OCc3coc2n3)C1 [Example 29, N-[(1′S,14R)-6-chloro-17-fluoro-spiro[8,12-dioxa-21-azatetracyclo[14.3.1.110,13.02,7]henicosa-1(19),2,4,6,10,13(21),16(20),17-octaene-14,3′-cyclopentane]-1′-yl]methanesulfonamide] | 2 | 98
6 | CS(=O)(=O)N[C@H]1CC[C@@]2(Cc3ccc(Cl)c(c3)-c3ccc(F)c(F)c3OCc3coc2n3)C1 [Example 31, N-[(1′S,14R)-19-chloro-5,6-difluoro-spiro[8,12-dioxa-21-azatetracyclo[14.3.1.110,13.02,7]henicosa-1(19),2,4,6,10,13(21),16(20),17-octaene-14,3′-cyclopentane]-1′-yl]methanesulfonamide] | 0.48 | 96
7 | CS(=O)(=O)N[C@H]1CC[C@@]2(Cc3cc(c(F)cc3Cl)-c3cccc(F)c3OCc3coc2n3)C1 [Example 32, N-[(1′S,14R)-17-chloro-6,19-difluoro-spiro[8,12-dioxa-21-azatetracyclo[14.3.1.110,13.02,7]henicosa-1(19),2,4,6,10,13(21),16(20),17-octaene-14,3′-cyclopentane]-1′-yl]methanesulfonamide] | 0.28 | 98
8 | O=S(=O)(N[C@H]1CC[C@@]2(Cc3ccc(F)c(c3)-c3cccc(F)c3OCc3coc2n3)C1)C1CC1 [Example 33, N-[(1′S,14R)-6,19-difluorospiro[8,12-dioxa-21-azatetracyclo[14.3.1.110,13.02,7]henicosa-1(19),2,4,6,10,13(21),16(20),17-octaene-14,3′-cyclopentane]-1′-yl]cyclopropanesulfonamide] | 0.1 | 97
9 | O=S(=O)(N[C@H]1CC[C@@]2(Cc3ccc(F)c(c3)-c3ccc(F)c(F)c3OCc3coc2n3)C1)C1CC1 [Example 34, N-[(1′S,14R)-5,6,19-trifluorospiro[8,12-dioxa-21-azatetracyclo[14.3.1.110,13.02,7]henicosa-1(19),2,4,6,10,13(21),16(20),17-octaene-14,3′-cyclopentane]-1′-yl]cyclopropanesulfonamide] | 0.8 | 98
10 | CCS(=O)(=O)N[C@H]1CC[C@@]2(Cc3ccc(F)c(c3)-c3ccc(F)c(F)c3OCc3coc2n3)C1 [Example 35, N-[(1′S,14R)-5,6,19-trifluorospiro[8,12-dioxa-21-azatetracyclo[14.3.1.110,13.02,7]henicosa-1(19),2,4,6,10,13(21),16(20),17-octaene-14,3′-cyclopentane]-1′-yl]ethanesulfonamide] | 1.4 | 100
11 | Cc1cccc2c1OCc1coc(n1)[C@]1(CC[C@H](NS(C)(=O)=O)C1)Cc1ccc(F)c-2c1 [Example 37, N-[(1′S,14R)-19-fluoro-6-methyl-spiro[8,12-dioxa-21-azatetracyclo[14.3.1.110,13.02,7]henicosa-1(19),2,4,6,10,13(21),16(20),17-octaene-14,3′-cyclopentane]-1′-yl]methanesulfonamide] | 1.1 | 96
12 | CS(=O)(=O)N[C@H]1CC[C@@]2(Cc3cccc(c3)-c3ccccc3OCc3coc2n3)C1 [Example 38, N-[(1′S,14R)-spiro[8,12-dioxa-21-azatetracyclo[14.3.1.110,13.02,7]henicosa-1(20),2,4,6,10,13(21),16,18-octaene-14,3′-cyclopentane]-1′-yl]methanesulfonamide] | 4.3 | 99
13 | CS(=O)(=O)N[C@H]1CC[C@@]2(COCCc3cccc(c3)OCc3coc2n3)C1 [Example 40, N-[(1′S,8S)-spiro[2,6,10-trioxa-18-azatricyclo[11.3.1.14,7]octadeca-1(17),4,7(18),13,15-pentaene-8,3′-cyclopentane]-1′-yl]methanesulfonamide] | 1700 | 94
14 | CS(=O)(=O)N[C@H]1CC[C@@]2(CO[C@H]3CC[C@H](CC3)c3cccc(c3)OCc3coc2n3)C1 [Example 41, N-[(1s,1′S,13S,16s)-spiro[7,11,15-trioxa-21-azatetracyclo[14.2.2.12,6.19,12]docosa-2,4,6(22),9,12(21)-pentaene-13,3′-cyclopentane]-1′-yl]methanesulfonamide] | 0.19 | 98
15 | CS(=O)(=O)N[C@H]1CC[C@@]2(CO[C@H]3CC[C@H](CC3)c3cccnc3OCc3coc2n3)C1 [Example 43, N-[(1s,1′S,14R,17s)-spiro[8,12,16-trioxa-6,22-diazatetracyclo[15.2.2.110,13.02,7]docosa-2,4,6,10,13(22)-pentaene-14,3′-cyclopentane]-1′-yl]methanesulfonamide] | 0.69 | 100
16 | CS(=O)(=O)N[C@H]1CC[C@@]2(Cc3cccc(c3)-c3cccc(F)c3OCc3coc2n3)C1 [Example 44, N-[(1′S,14R)-6-fluorospiro[8,12-dioxa-21-azatetracyclo[14.3.1.110,13.02,7]henicosa-1(19),2,4,6,10,13(21),16(20),17-octaene-14,3′-cyclopentane]-1′-yl]methanesulfonamide] | 0.54 | 99
17 | CS(=O)(=O)N[C@H]1CC[C@@]2(Cc3ccc(F)c(c3)-c3ccccc3OCc3coc2n3)C1 [Example 45, N-[(1′S,14R)-19-fluorospiro[8,12-dioxa-21-azatetracyclo[14.3.1.110,13.02,7]henicosa-1(19),2,4,6,10,13(21),16(20),17-octaene-14,3′-cyclopentane]-1′-yl]methanesulfonamide] | 0.34 | 97
18 | CS(=O)(=O)N[C@H]1CC[C@@]2(Cc3ccc(F)c(c3)-c3cccc(F)c3OCc3csc2n3)C1 [Example 46, N-[(1′S,14R)-6,19-difluorospiro[8-oxa-12-thia-21-azatetracyclo[14.3.1.110,13.02,7]henicosa-1(19),2,4,6,10,13(21),16(20),17-octaene-14,3′-cyclopentane]-1′-yl]methanesulfonamide] | 0.14 | 99
